In US5324648A, “Substituted isocoumarins as serine protease inhibitors and anti-inflammatory agents” (Georgia Tech Research Corporation, priority 1992, dated 1994):
Read-outs that look alike come from different tables or passages of the source.

Tests used:
[1] = target: T1, cathepsin G (Homo sapiens, UniProt P08311); assay: Inactivation of cathepsin G; format: biochemical; parameters: percentage of inhibition: concentration or dose not given beside the values; conditions: Table XVI; for kinact/KI: read-out: kobs/[I]; for percentage of inhibition: after 5 min incubation
T1 construct: from tissue; host or cells: human leukocytes
T1 sequence (P08311 21-255): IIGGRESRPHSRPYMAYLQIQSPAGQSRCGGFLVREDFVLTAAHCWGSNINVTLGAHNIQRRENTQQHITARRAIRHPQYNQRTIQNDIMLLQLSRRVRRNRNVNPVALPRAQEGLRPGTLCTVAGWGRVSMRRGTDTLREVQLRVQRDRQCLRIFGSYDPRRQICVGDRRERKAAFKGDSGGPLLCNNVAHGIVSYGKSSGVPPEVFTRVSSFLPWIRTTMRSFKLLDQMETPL

[2] = target: T2, porcine pancreatic elastase (PPE) (Sus scrofa, UniProt P00772); assay: Inactivation of porcine pancreatic elastase (PPE); format: biochemical; conditions: Table XVI, pH 7.5, 25° C, [I] 0.04-2.0 mM; for kinact/KI: read-out: kobs/[I]
T2 construct: from tissue; host or cells: porcine pancreas (from the name)
Experimental: (§1) Inactivation rates of serine proteases by substituted isocoumarins were measured by the incubation method. An aliquot of inhibitor (25 or 50 μl) in Me2 SO was added to a buffered enzyme solution (0.01-2.3 μM) to initiate the inactivation. Aliquots (50 μl) were withdrawn at various intervals and the residual enzymatic activity was measured. Me2 SO concentration in the reaction mixture was 8-12% (v/v). 0.1 Hepes, 0.01M CaCl2, pH 7.5 buffer was utilized for trypsin and coagulation enzymes. 0.1M Hepes, 0.5M NaCl, pH 7.5 was utilized for other serine proteases. […] Peptide thioesters or peptide nitroanilides with appropriate sequence were used as substrates for various serine proteases. All peptide thioester hydrolysis rates were measured with assay mixtures containing 4,4'-dithiodipyridine (ε324 =19800M^-1 cm^-1 ; Grasetti & Murray, Arch. Biochem. Biophys. 119, pp 41-49 (1967)). Peptide 4-nitroanilide nitroanilide hydrolysis was measured at 410 nm (ε410 =8800M^-1 cm^-1 ; Erlanger et al., Arch. Biochem. Biophys. 95, pp 271-278 (1961)). First order inactivation rate constant (kobs) were obtained from plots of ln (vt /vo) vs time, and the correlation coefficients were greater than 0.98.
(§2) ^a Inactivation rates were measured at 0.1M Hepes, 0.5 NaCl, pH 7.5,
(§3) 8-12% Me2 SO and 25° C. by incubation method.
(§4) ^a Inhibition rates were measured in 0.1M Hepes, 0.05M NaCl, pH 7.5
buffer, 8-9% Me2 SO and at 25° C.
(§5) ^a Inhibition constants were in 0.1M Hepes, 0.5M NaCl, pH 7.5 buffer,
8-9% Me2 SO and at 25° C.
(§6) ^a Inhibition rates were measured in 0.1M Hepes, 0.5M NaCl, 2.5%
Me2 SO, pH 7,5 and at 25° C.
(§7) ^a Inhibition was measured in 0.1M Hepes, 0.5M NaCl, pH 7.5 buffer,
(§8) 5-10% Me2 SO and at 25° C. Suc--Val--Pro--Phe--NA (0.48 mM)
(§9) was used as the substrate for chymotrypsin and cat G.
(§10) ^a Inhibition rates were measured in 0.1M Hepes, 0.5M NaCl, pH 7.5

[3] = target: T3, human leukocyte elastase (HLE) (Homo sapiens, UniProt P08246); assay: Inactivation of human leukocyte elastase (HLE); format: biochemical; conditions: Table XVI; for kinact/KI: read-out: kobs/[I]
T3 construct: from tissue; host or cells: human leukocytes (from the name)
T3 sequence (P08246 30-267): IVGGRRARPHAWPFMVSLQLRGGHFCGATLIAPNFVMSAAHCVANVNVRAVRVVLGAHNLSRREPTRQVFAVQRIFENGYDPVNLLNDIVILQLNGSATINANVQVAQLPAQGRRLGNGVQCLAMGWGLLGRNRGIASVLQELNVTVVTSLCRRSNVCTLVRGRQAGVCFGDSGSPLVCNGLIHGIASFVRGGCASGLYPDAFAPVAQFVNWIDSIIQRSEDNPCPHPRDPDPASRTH
Experimental: as §1, §2, §3, §4
buffer, 8-9% Me2 SO and at 25° C.
as §5
8-9% Me2 SO and at 25° C.
as §6
Me2 SO, pH 7,5 and at 25° C.
as §7, §8, §9, §10

[4] = target: chymotrypsin (Bos taurus, UniProt P00766); assay: Inactivation of chymotrypsin; format: biochemical, bovine; conditions: Table XVI
[5] = pH 7.5, second order, equimolar inhibitor and enzyme
[6] = pH 7.5, biphasic plot, read-out: kobs/[I] (biphasic, first value)
[7] = pH 7.5, biphasic plot, read-out: kobs/[I] (biphasic, second value)
[8] = pH 7.5, 25° C, [I] 1.7-58 μM, read-out: kobs/[I]

T2 sequence (P00772 27-266): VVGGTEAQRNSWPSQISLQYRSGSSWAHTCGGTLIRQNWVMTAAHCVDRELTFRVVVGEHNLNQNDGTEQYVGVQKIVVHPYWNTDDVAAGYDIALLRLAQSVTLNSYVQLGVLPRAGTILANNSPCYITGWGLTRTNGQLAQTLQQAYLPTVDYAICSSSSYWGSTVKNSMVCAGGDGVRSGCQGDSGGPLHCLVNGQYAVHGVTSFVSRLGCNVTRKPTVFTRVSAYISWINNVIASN

Row | SMILES | kinact/KI ([1]; pH 7.5, 25° C, [I] 35-710 μM) [M⁻¹ s⁻¹] | kinact/KI [2] [M⁻¹ s⁻¹] | kinact/KI [3, 5] [M⁻¹ s⁻¹] | percentage of inhibition [1] [%] | kinact/KI [4, 8] [M⁻¹ s⁻¹] | kinact/KI ([3]; pH 7.5, 25° C, [I] 0.07-710 μM) [M⁻¹ s⁻¹] | further results
1 | CCCOCCOc1oc(=O)c2cc(N)ccc2c1Cl |  |  |  |  |  |  | kobs/[I] ([1]; pH 7.5, 25° C, [I] 35-710 μM): 2.6 M⁻¹ s⁻¹; kobs/[I] [2]: 0.5 M⁻¹ s⁻¹; kobs/[I] ([3]; pH 7.5, 25° C, [I] 0.07-710 μM): 33 M⁻¹ s⁻¹; kobs/[I] ([4]; pH 7.5, 25° C, [I] 1.7-58 μM): 140 M⁻¹ s⁻¹
2 | C[C@H](NC(=O)OC(C)(C)C)C(=O)N[C@@H](C)C(=O)Nc1ccc2c(Cl)c(OCCBr)oc(=O)c2c1 [7-(N-t-butyloxycarbonyl-L-alanylalanyl)amino-4-chloro-3-(2-bromoethoxy)isocoumarin] | 46 | 1670 | 230000 |  |  |  | kinact/KI [4, 6]: 2750 M⁻¹ s⁻¹; kinact/KI [4, 7]: 810 M⁻¹ s⁻¹
3 | CC(C)(C)OC(=O)N[C@@H](Cc1ccccc1)C(=O)Nc1ccc2c(Cl)c(OCCBr)oc(=O)c2c1 [7-(N-t-butyloxycarbonyl-L-phenylalanyl)amino-4-chloro-3-(2-bromoethoxy)isocoumarin] |  | 50 |  | 19 | 400 |  | 
4 | C[C@@H](NC(=O)Nc1ccc2c(Cl)c(OCCBr)oc(=O)c2c1)c1ccccc1 [7-(R-α-methylbenzyl)carbamoylamino-4-chloro-3-(2-bromoethoxy)isocoumarin] | 77 | 9900 | > 440000 |  |  |  | kinact/KI [4, 6]: 180 M⁻¹ s⁻¹; kinact/KI [4, 7]: 90 M⁻¹ s⁻¹
5 | C[C@H](NC(=O)Nc1ccc2c(Cl)c(OCCBr)oc(=O)c2c1)c1ccccc1 [7-(S-α-methylbenzyl)carbamoylamino-4-chloro-3-(2-bromoethoxy)isocoumarin] |  | 2660 | > 570000 | 21 | 440 |  | 
6 | CC(=O)Nc1ccc2c(Cl)c(OCCCBr)oc(=O)c2c1 [7-acetylamino-4-chloro-3-(3-bromopropoxy)isocoumarin] | 170 | 24 |  |  | 3980 | 24400 | 
7 | Nc1ccc2c(Cl)c(OCCBr)oc(=O)c2c1 [7-amino-4-chloro-3-(2-bromoethoxy)isocoumarin] | 410 | 1000 |  |  | 1160 |  | kinact/KI ([3]; pH 7.5, progress curve method): 200000 M⁻¹ s⁻¹
8 | CC(CBr)Oc1oc(=O)c2cc(N)ccc2c1Cl (stereo not shown) [7-amino-4-chloro-3-(2-bromoisopropoxy)isocoumarin] | 150 | 62 |  |  | 320 | 24000 | 
9 | Nc1ccc2c(Cl)c(OCCCBr)oc(=O)c2c1 [7-amino-4-chloro-3-(3-bromopropoxy)isocoumarin] | 210 | 10 |  |  | 790 | 4000 | 
10 | CCCOc1oc(=O)c2cc(N)ccc2c1Cl [7-amino-4-chloro-3-propoxyisocoumarin] | 61 | 4.3 |  |  | 375 | 390 | 
11 | O=C(NCc1ccccc1)Nc1ccc2c(Cl)c(OCCBr)oc(=O)c2c1 [7-benzylcarbamoylamino-4-chloro-3-(2-bromoethoxy)isocoumarin] |  | 3010 | 480000 | 23 | 890 |  | 
12 | O=C(NCc1ccccc1)Nc1ccc2c(Cl)c(OCCCBr)oc(=O)c2c1 [7-benzylcarbamoylamino-4-chloro-3-(3-bromopropoxy)isocoumarin] |  | 13 |  | 21 | 440 | 15600 | 
